{"source": "patent US10736931B2", "about": "“Pharmaceutical compositions comprising plant extracts and methods for reducing duration of a common cold using same” (Matrixx Initiatives, Inc., priority 2014, dated 2020)", "origin": "cited, not measured here", "target": "acetylcholine esterase (Homo sapiens, UniProt P22303)", "sequence (P22303 32-614)": "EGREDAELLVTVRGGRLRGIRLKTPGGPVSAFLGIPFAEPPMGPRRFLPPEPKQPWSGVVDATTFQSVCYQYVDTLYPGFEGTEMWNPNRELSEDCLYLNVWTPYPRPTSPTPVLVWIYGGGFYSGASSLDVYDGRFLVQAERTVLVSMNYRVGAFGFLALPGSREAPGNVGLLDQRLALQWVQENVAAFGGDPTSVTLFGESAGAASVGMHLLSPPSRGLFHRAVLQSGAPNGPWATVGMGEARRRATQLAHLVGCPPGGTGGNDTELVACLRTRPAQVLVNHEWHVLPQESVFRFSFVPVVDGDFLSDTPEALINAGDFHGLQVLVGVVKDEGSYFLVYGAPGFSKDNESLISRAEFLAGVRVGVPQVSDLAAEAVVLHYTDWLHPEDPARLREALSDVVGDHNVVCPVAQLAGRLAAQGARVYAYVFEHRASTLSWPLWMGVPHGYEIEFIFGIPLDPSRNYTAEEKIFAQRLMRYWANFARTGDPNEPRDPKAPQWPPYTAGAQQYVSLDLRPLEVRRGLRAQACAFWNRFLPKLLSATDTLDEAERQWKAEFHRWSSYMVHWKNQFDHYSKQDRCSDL", "details": "ceramides from L. operculata; Feitosa et al. 2011"}
{"substance": "ceramides", "values": [{"measurement": "acetylcholine esterase inhibitory effects", "value": "high"}]}
